Source: ChEMBL document CHEMBL1201862, “PubChem BioAssay data set” (2004)
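96-well plates; 48 h exposure; 5 concentrations. Endpoints by linear interpolation between flanking doses. Not reached: highest tested concentration assigned. Abbreviation: GI50, concentration required for 50% inhibition of growth.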 Calls of active or inactive are those of the source. Rule as the data show it: active = GI50 up to about 1.1 µM and inactive = higher.

Tests used:
Test in all cases: DTP human tumour cell line panel, 48 h
NCI-H460 = test system: NCI-H460
OVCAR-4 = test system: OVCAR-4
SF-295 = test system: SF-295
MDA-N = test system: MDA-N
OVCAR-5 = test system: OVCAR-5
U-251 = test system: U-251
NCI-H23 = test system: NCI-H23
HOP-62 = test system: HOP-62
HCT-15 = test system: HCT-15
UO-31 = test system: UO-31
KM12 = test system: KM12
NCI/ADR-RES = test system: NCI/ADR-RES
A498 = test system: A498
SNB-19 = test system: SNB-19
ACHN = test system: ACHN
K562 = test system: K562
SF-268 = test system: SF-268
MDA-MB-231 = test system: MDA-MB-231
SK-MEL-28 = test system: SK-MEL-28
SNB-75 = test system: SNB-75

SMILES	GI50 (NCI-H460)	GI50 (OVCAR-4)	GI50 (SF-295)	GI50 (MDA-N)	GI50 (OVCAR-5)	GI50 (U-251)	GI50 (NCI-H23)	GI50 (HOP-62)	GI50 (HCT-15) [µM]	GI50 (UO-31)	GI50 (KM12)	GI50 (NCI/ADR-RES)	GI50 (A498)	GI50 (SNB-19)	GI50 (ACHN)	GI50 (K562)	GI50 (SF-268)	GI50 (MDA-MB-231)	GI50 (SK-MEL-28)	GI50 (SNB-75)
COc1cc(O)c2c(=O)c3ccccc3n(C)c2c1	4.48 µM (inactive)	89.3 µM (inactive)	27.7 µM (inactive)	> 100 µM (inactive)	> 100 µM (inactive)	29.4 µM (inactive)	> 100 µM (inactive)	15.9 µM (inactive)	43.5	6.85 µM (inactive)	> 100 µM (inactive)	32.7 µM (inactive)	90.4 µM (inactive)	0.253 µM (active)	14 µM (inactive)	> 100 µM (inactive)	53.7 µM (inactive)	71.3 µM (inactive)	> 100 µM (inactive)	–
CC1(C)CN=C(Nc2ccc(F)c(F)c2)S1	–	> 100 µM (inactive)	> 100 µM (inactive)	> 100 µM (inactive)	> 100 µM (inactive)	> 100 µM (inactive)	> 100 µM (inactive)	> 100 µM (inactive)	> 100	> 100 µM (inactive)	> 100 µM (inactive)	> 100 µM (inactive)	–	> 100 µM (inactive)	> 100 µM (inactive)	> 100 µM (inactive)	> 100 µM (inactive)	> 100 µM (inactive)	> 100 µM (inactive)	> 100 µM (inactive)
O=C(CCc1cc(O)cc(O)c1)NCCCNC(=O)CCc1cc(O)cc(O)c1	–	> 100 µM (inactive)	> 100 µM (inactive)	> 100 µM (inactive)	> 100 µM (inactive)	> 100 µM (inactive)	> 100 µM (inactive)	> 100 µM (inactive)	> 100	> 100 µM (inactive)	> 100 µM (inactive)	> 100 µM (inactive)	> 100 µM (inactive)	> 100 µM (inactive)	> 100 µM (inactive)	> 100 µM (inactive)	> 100 µM (inactive)	> 100 µM (inactive)	> 100 µM (inactive)	–
O=C1CCCC(=O)N1n1c(Cc2ccc(Cl)cc2)n[nH]c1=O	> 100 µM (inactive)	> 100 µM (inactive)	> 100 µM (inactive)	> 100 µM (inactive)	> 100 µM (inactive)	> 100 µM (inactive)	> 100 µM (inactive)	> 100 µM (inactive)	> 100	> 100 µM (inactive)	> 100 µM (inactive)	> 100 µM (inactive)	–	> 100 µM (inactive)	> 100 µM (inactive)	> 100 µM (inactive)	> 100 µM (inactive)	> 100 µM (inactive)	> 100 µM (inactive)	> 100 µM (inactive)
CCSc1nnc2c(-c3ccccc3)n[nH]c2n1	> 100 µM (inactive)	> 100 µM (inactive)	31 µM (inactive)	> 100 µM (inactive)	> 100 µM (inactive)	> 100 µM (inactive)	> 100 µM (inactive)	59.8 µM (inactive)	> 100	> 100 µM (inactive)	> 100 µM (inactive)	> 100 µM (inactive)	–	> 100 µM (inactive)	> 100 µM (inactive)	> 100 µM (inactive)	49.1 µM (inactive)	> 100 µM (inactive)	> 100 µM (inactive)	27.2 µM (inactive)
COc1ccccc1NS(=O)(=O)c1ccc2ncn(NS(=O)(=O)c3ccc(Cl)cc3)c(=O)c2c1	> 100 µM (inactive)	> 100 µM (inactive)	17.7 µM (inactive)	67.9 µM (inactive)	63 µM (inactive)	> 100 µM (inactive)	> 100 µM (inactive)	> 100 µM (inactive)	> 100	35.2 µM (inactive)	61.4 µM (inactive)	> 100 µM (inactive)	–	> 100 µM (inactive)	> 100 µM (inactive)	3.36 µM (inactive)	> 100 µM (inactive)	> 100 µM (inactive)	> 100 µM (inactive)	> 100 µM (inactive)
COC(=O)/C(C)=N/N=C(\S)SC	26.9 µM (inactive)	46.3 µM (inactive)	40.2 µM (inactive)	77.1 µM (inactive)	80.2 µM (inactive)	38.5 µM (inactive)	45.6 µM (inactive)	> 100 µM (inactive)	36.7	36.7 µM (inactive)	52.5 µM (inactive)	30 µM (inactive)	> 100 µM (inactive)	–	34.1 µM (inactive)	75 µM (inactive)	21.8 µM (inactive)	46.6 µM (inactive)	44.5 µM (inactive)	–
CCOC(=O)c1ccc(NCC#CCN2CCOCC2)cc1	–	> 100 µM (inactive)	–	29.4 µM (inactive)	19.9 µM (inactive)	> 100 µM (inactive)	> 100 µM (inactive)	> 100 µM (inactive)	62.4	> 100 µM (inactive)	> 100 µM (inactive)	> 100 µM (inactive)	> 100 µM (inactive)	> 100 µM (inactive)	46 µM (inactive)	38.6 µM (inactive)	> 100 µM (inactive)	> 100 µM (inactive)	> 100 µM (inactive)	–
CC(=O)SCCC(NC(=S)Nc1ccccc1)P(=O)(Oc1ccccc1)Oc1ccccc1 (stereo not drawn)	> 100 µM (inactive)	> 100 µM (inactive)	> 100 µM (inactive)	> 100 µM (inactive)	> 100 µM (inactive)	> 100 µM (inactive)	> 100 µM (inactive)	> 100 µM (inactive)	> 100	> 100 µM (inactive)	> 100 µM (inactive)	> 100 µM (inactive)	–	> 100 µM (inactive)	> 100 µM (inactive)	> 100 µM (inactive)	> 100 µM (inactive)	> 100 µM (inactive)	> 100 µM (inactive)	> 100 µM (inactive)
COC(=O)/C=c1/c2ccccc2n2nc3ccccc3c12	43.9 µM (inactive)	23 µM (inactive)	> 100 µM (inactive)	30.8 µM (inactive)	> 100 µM (inactive)	69 µM (inactive)	66.5 µM (inactive)	> 100 µM (inactive)	77.1	62.2 µM (inactive)	27.5 µM (inactive)	30.8 µM (inactive)	26.2 µM (inactive)	82.4 µM (inactive)	> 100 µM (inactive)	51.4 µM (inactive)	49.9 µM (inactive)	16.4 µM (inactive)	> 100 µM (inactive)	–
O=C(OCc1ccc([N+](=O)[O-])cc1)N1c2ccccc2[C@@]23O[C@]24CCC[C@H]3C#C/C=C\C#C[C@H]14	1.17 µM (inactive)	> 100 µM (inactive)	> 100 µM (inactive)	> 100 µM (inactive)	> 100 µM (inactive)	> 100 µM (inactive)	> 100 µM (inactive)	–	89.1	> 100 µM (inactive)	> 100 µM (inactive)	43.6 µM (inactive)	> 100 µM (inactive)	> 100 µM (inactive)	78.9 µM (inactive)	88.1 µM (inactive)	38.6 µM (inactive)	> 100 µM (inactive)	> 100 µM (inactive)	–
